As a reminder, the IC50 is the concentration that inhibits the measured activity by half.

The source made the active and inactive calls. No cut-off for these calls is given here.

The nature of series [1]: Antiproliferative activity against mouse KC-0116 cells assessed as inhibition of cell growth incubated for 72 hrs by MTT assay. The format is functional, cell-based. As to conditions: KC-0116, 72 h. On the technique in general: Formazan colour is commonly taken as a measure of viable cells.
Series [2] in a line: Antiproliferative activity against mouse KC-0122 cells assessed as inhibition of cell growth incubated for 72 hrs by MTT assay. The format is functional, cell-based. The settings on record: KC-0122, 72 h.
The next series concerns A-431. The series can be described thus: Antiproliferative activity against human A-431 cells harboring wild type EGFR assessed as inhibition of cell growth incubated for 72 hrs by MTT assay. The format is functional, cell-based. As to conditions: A-431, 72 h.
Another series deals with HCC827. Description: Antiproliferative activity against human HCC827 cells harboring EGFR Del19 mutant assessed as inhibition of cell growth incubated for 72 hrs by MTT assay. The format is functional, cell-based. As to conditions: HCC827, 72 h.
The test system of the next series is NCI-H1975. The series can be described thus: Antiproliferative activity against human NCI-H1975 cells harboring EGFR L858R/T790M mutant assessed as inhibition of cell growth incubated for 72 hrs by MTT assay. The format is functional, cell-based. As to conditions: NCI-H1975, 72 h.
A further series has as its system HepG2. Description: Antiproliferative activity against human HepG2 cells harboring VEGFR assessed as inhibition of cell growth incubated for 72 hrs by MTT assay. The settings on record: HepG2, 72 h. The format is functional, cell-based.
Series [3] addresses Epidermal growth factor receptor (Mus musculus) (UniProt Q01279). Description: Inhibition of EGFR in mouse KC-0116 cells assessed as downregulation of EGFR phosphorylation level incubated for 24 hrs by Western blotting analysis. The format is cell-based. For orientation: Immunoblotting shows a protein as a band on a membrane.
Series [4] has the same target. The series can be described thus: Inhibition of EGFR in mouse KC-0122 cells assessed as downregulation of EGFR phosphorylation level incubated for 24 hrs by Western blotting analysis. The format is cell-based.
For series [5] the target is unchanged. The series can be described thus: Inhibition of EGFR in mouse KC-0116 cells assessed as downregulation of AKT protein expression level incubated for 24 hrs by Western blotting analysis. The format is cell-based.
Series [6] has the same target. Description: Inhibition of EGFR in mouse KC-0122 cells assessed as downregulation of AKT protein expression level incubated for 24 hrs by Western blotting analysis. The format is cell-based.
The target is the same in series [7]. Description: Inhibition of EGFR in mouse KC-0116 cells assessed as downregulation of ERK protein expression level incubated for 24 hrs by Western blotting analysis. The format is cell-based.
Series [8] shares this target. The series can be described thus: Inhibition of EGFR in mouse KC-0122 cells assessed as downregulation of ERK protein expression level incubated for 24 hrs by Western blotting analysis. The format is cell-based.
The target is the same in series [9]. Description: Inhibition of EGFR in mouse KC-0116 cells assessed as downregulation of EGFR phosphorylation level at 1 uM incubated for 24 hrs by Western blotting analysis. The format is cell-based.
For series [10] the target is unchanged. Description: Inhibition of EGFR in mouse KC-0116 cells assessed as downregulation of AKT protein expression level at 1 uM incubated for 24 hrs by Western blotting analysis. The format is cell-based.
For series [11] the target is unchanged. Description: Inhibition of EGFR in mouse KC-0116 cells assessed as downregulation of ERK protein expression level at 1 uM incubated for 24 hrs by Western blotting analysis. The format is cell-based.
Series [12] shares this target. Description: Inhibition of EGFR in mouse KC-0122 cells assessed as downregulation of EGFR phosphorylation level at 1 uM incubated for 24 hrs by Western blotting analysis. The format is cell-based.
The target is the same in series [13]. Description: Inhibition of EGFR in mouse KC-0122 cells assessed as downregulation of AKT protein expression level at 1 uM incubated for 24 hrs by Western blotting analysis. The format is cell-based.
For series [14] the target is unchanged. The series can be described thus: Inhibition of EGFR in mouse KC-0122 cells assessed as downregulation of ERK protein expression level at 1 uM incubated for 24 hrs by Western blotting analysis. The format is cell-based.
The target of series [15] is T1, Epidermal growth factor receptor (Homo sapiens, UniProt P00533, C797S/EX19DEL/T790M). Description: Inhibition of EGFR Del19/T790M/C797S mutant (unknown origin).
T1 sequence (P00533 whole entry, looked up, stated change not applied): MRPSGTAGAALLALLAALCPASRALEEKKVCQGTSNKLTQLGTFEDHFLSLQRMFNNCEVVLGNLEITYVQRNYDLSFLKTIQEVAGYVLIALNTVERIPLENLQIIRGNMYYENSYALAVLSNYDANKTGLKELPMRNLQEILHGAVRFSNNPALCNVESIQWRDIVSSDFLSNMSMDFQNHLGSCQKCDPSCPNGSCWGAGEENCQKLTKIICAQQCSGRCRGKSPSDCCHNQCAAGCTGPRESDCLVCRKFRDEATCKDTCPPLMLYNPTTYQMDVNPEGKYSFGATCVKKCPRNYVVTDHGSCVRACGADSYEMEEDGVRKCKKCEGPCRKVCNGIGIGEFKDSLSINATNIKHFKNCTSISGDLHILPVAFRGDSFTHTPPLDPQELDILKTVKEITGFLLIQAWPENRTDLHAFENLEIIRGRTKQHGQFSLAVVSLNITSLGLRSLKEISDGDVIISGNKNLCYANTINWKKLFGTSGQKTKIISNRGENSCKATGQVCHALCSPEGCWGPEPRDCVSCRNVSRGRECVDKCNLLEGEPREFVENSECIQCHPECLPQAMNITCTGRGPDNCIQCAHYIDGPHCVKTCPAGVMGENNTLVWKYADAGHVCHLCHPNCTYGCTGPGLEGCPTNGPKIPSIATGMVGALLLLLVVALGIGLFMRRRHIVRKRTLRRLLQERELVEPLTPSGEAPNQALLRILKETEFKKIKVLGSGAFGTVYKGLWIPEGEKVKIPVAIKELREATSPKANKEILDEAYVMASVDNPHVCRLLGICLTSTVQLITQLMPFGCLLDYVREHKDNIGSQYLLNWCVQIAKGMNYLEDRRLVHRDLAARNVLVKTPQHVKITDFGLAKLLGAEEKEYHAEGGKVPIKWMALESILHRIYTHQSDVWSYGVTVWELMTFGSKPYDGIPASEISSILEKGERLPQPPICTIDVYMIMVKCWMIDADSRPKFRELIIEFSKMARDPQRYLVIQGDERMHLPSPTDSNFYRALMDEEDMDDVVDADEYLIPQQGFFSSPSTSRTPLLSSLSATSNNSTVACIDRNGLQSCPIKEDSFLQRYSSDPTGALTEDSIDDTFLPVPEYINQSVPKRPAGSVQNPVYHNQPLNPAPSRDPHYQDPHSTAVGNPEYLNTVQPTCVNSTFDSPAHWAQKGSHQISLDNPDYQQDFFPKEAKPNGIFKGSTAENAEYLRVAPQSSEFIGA
The target in series [16] is Epidermal growth factor receptor (Homo sapiens, UniProt P00533, C797S/L858R/T790M). Description: Inhibition of EGFR L858R/T790M/C797S mutant (unknown origin).
Chain of Epidermal growth factor receptor (Homo sapiens, UniProt P00533, C797S/L858R/T790M) (P00533 25-1210 T790M/C797S/L858R limits assumed): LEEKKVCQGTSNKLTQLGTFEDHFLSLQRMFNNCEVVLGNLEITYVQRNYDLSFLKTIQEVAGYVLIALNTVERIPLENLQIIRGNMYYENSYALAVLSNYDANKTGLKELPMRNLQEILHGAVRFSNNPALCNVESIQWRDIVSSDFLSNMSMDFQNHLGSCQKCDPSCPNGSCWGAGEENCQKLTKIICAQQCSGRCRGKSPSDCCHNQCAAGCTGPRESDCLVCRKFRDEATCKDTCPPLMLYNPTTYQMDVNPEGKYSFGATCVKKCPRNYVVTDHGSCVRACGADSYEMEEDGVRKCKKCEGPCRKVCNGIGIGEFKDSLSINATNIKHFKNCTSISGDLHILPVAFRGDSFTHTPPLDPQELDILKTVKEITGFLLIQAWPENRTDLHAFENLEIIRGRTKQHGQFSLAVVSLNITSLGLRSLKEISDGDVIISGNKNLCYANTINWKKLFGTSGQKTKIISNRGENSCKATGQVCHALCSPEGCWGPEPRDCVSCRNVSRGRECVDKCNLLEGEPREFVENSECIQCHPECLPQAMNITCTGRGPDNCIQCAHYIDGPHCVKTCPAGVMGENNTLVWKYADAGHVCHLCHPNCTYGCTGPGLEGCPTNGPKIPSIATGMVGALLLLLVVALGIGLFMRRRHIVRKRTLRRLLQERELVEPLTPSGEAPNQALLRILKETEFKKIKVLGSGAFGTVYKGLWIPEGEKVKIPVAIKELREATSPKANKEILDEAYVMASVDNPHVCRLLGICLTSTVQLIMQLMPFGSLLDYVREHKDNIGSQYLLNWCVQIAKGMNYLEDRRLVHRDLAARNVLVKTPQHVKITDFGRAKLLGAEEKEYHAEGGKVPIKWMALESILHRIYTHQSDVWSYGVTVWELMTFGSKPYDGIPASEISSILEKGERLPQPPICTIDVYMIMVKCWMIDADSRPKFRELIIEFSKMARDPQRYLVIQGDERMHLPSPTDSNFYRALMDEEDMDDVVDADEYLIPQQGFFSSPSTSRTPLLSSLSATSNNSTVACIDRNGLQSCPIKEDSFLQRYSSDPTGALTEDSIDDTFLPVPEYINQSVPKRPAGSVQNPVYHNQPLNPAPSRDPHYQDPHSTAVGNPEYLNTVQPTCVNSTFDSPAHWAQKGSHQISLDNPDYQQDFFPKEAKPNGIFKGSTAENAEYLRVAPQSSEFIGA
For series [17], the system named is KC-0116. The series can be described thus: Induction of cell cycle arrest in mouse KC-0116 cells assessed as accumulation of cells at G1 phase at 1 uM incubated for 24 hrs by RNase/PI staining based flow cytometry. The format is functional. Background: In flow cytometry, cells or beads pass a laser one at a time.
The nature of series [18]: Induction of apoptosis in mouse KC-0116 cells assessed as viable cells at 0.1 uM incubated for 48 hrs by annexin V-FITC/ PI staining based flow cytometry (reference value: 93.27 %). The format is functional. As to conditions: read-out: Activity.
Series [19] is described as follows: Induction of apoptosis in mouse KC-0116 cells assessed as early apoptotic cells at 0.1 uM incubated for 48 hrs by annexin V-FITC/ PI staining based flow cytometry (reference value: 8.09 %). The format is functional.
Series [20] in a line: Induction of apoptosis in mouse KC-0116 cells assessed as late apoptotic cells at 0.1 uM incubated for 48 hrs by annexin V-FITC/ PI staining based flow cytometry (reference value: 1 %). The format is functional.
A short description of series [21]: Induction of apoptosis in mouse KC-0116 cells assessed as necrotic cells at 0.1 uM incubated for 48 hrs by annexin V-FITC/ PI staining based flow cytometry (reference value: 0.04 %). The format is functional.
A short description of series [22]: Induction of apoptosis in mouse KC-0116 cells assessed as viable cells at 1 uM incubated for 48 hrs by annexin V-FITC/ PI staining based flow cytometry (reference value: 93.27 %). The format is functional. As to conditions: Mus musculus, KC-0116, read-out: Activity.
Series [23] in a line: Induction of apoptosis in mouse KC-0116 cells assessed as early apoptotic cells at 1 uM incubated for 48 hrs by annexin V-FITC/ PI staining based flow cytometry (reference value: 8.09 %). The format is functional.
A short description of series [24]: Induction of apoptosis in mouse KC-0116 cells assessed as late apoptotic cells at 1 uM incubated for 48 hrs by annexin V-FITC/ PI staining based flow cytometry (reference value: 1 %). The format is functional.
Series [25] can be described thus: Induction of apoptosis in mouse KC-0116 cells assessed as necrotic cells at 1 uM incubated for 48 hrs by annexin V-FITC/ PI staining based flow cytometry (reference value: 0.04 %). The format is functional.
A short description of series [26]: Induction of apoptosis in mouse KC-0116 cells assessed as viable cells at 10 uM incubated for 48 hrs by annexin V-FITC/ PI staining based flow cytometry (reference value: 93.27 %). The settings on record: read-out: Activity. The format is functional.
A short description of series [27]: Induction of apoptosis in mouse KC-0116 cells assessed as early apoptotic cells at 10 uM incubated for 48 hrs by annexin V-FITC/ PI staining based flow cytometry (reference value: 8.09 %). The format is functional.
Series [28] in a line: Induction of apoptosis in mouse KC-0116 cells assessed as late apoptotic cells at 10 uM incubated for 48 hrs by annexin V-FITC/ PI staining based flow cytometry (reference value: 1 %). The format is functional.
Series [29] in a line: Induction of apoptosis in mouse KC-0116 cells assessed as necrotic cells at 10 uM incubated for 48 hrs by annexin V-FITC/ PI staining based flow cytometry (reference value: 0.04 %). The format is functional.
A short description of series [30]: Antitumor activity against mouse KC-0116 cells xenografted in BALB/c mouse assessed as tumor growth inhibition at 10 mg/kg,po administrated once daily for 10 days relative to control. The format is functional. As to conditions: KC-0116, 240 h, time 10 day, read-out: TGI.
A short description of series [31]: Antitumor activity against mouse KC-0116 cells xenografted in BALB/c mouse assessed as tumor growth inhibition at 40 mg/kg,po administrated once daily for 10 days relative to control. The settings on record: KC-0116, 240 h, time 10 day, read-out: TGI. The format is functional.
In series [32] the test system is KC-0116. The series can be described thus: Antitumor activity against mouse KC-0116 cells xenografted in BALB/c mouse assessed as reduction in tumor weight at 40 mg/kg,po administrated once daily for 10 days. The format is functional, organism-based. As to conditions: time 10.0 day.
Series [33] can be described thus: Toxicity in BALB/c mouse xenografted with mouse KC-0116 cells assessed as change in body weight at 10 mg/kg,po administrated once daily for 10 days. The format is organism-based. The settings on record: in vivo, 240 h, time 10 day.
The nature of series [34]: Toxicity in BALB/c mouse xenografted with mouse KC-0116 cells assessed as change in body weight at 40 mg/kg,po administrated once daily for 10 days. The format is organism-based. As to conditions: in vivo, 240 h, time 10 day.
The target of series [35] is T1, Epidermal growth factor receptor. Description: Inhibition of recombinant EGFR Del19/T790M/C797S mutant (unknown origin) in presence of ATP by TR-FRET assay.

Chain of Epidermal growth factor receptor (Mus musculus) (Q01279 whole entry): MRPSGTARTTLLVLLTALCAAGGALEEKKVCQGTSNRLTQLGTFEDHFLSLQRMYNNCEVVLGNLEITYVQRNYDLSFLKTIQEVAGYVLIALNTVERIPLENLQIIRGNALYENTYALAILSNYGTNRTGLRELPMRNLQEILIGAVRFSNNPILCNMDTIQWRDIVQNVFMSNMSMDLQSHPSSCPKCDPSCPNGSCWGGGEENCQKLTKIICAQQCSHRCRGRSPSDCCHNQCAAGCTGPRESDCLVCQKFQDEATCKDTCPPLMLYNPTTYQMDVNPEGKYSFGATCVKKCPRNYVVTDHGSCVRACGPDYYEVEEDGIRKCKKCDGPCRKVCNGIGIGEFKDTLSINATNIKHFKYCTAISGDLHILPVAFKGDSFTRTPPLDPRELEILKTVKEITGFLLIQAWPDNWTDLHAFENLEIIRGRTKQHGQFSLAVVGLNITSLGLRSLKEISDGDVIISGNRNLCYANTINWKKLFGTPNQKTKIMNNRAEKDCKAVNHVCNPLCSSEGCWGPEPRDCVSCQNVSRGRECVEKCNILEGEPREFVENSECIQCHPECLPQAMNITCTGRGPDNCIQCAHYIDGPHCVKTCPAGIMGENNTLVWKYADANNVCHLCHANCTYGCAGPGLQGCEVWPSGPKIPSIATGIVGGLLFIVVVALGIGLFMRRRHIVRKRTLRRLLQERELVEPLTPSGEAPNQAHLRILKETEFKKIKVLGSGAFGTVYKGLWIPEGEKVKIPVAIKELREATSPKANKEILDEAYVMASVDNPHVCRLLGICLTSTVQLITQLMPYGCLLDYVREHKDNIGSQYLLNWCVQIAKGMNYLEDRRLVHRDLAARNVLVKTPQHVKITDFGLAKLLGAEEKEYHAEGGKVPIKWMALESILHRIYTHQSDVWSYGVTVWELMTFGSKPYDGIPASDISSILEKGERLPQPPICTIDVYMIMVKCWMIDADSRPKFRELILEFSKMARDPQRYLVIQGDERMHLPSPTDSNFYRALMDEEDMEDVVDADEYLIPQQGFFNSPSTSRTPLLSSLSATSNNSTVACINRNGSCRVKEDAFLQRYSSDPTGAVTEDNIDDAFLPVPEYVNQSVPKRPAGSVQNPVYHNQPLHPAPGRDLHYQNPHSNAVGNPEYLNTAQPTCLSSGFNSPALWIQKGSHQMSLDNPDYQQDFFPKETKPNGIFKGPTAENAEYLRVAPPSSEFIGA

Consider `CN(C)C1CCN(c2ccc(Nc3nccc(-c4cn(C)c5ccccc45)n3)cc2NS(C)(=O)=O)CC1`, for which the IC50 in series [1] was 160 nM; in [2], 170 nM; in the series on A-431, 1990 nM; in the series with HCC827, 160 nM; in the series on NCI-H1975, 1000 nM; in the series on HepG2, 1780 nM. Moreover, the 50% inhibitory concentration (IC50) is 18 nM in [15] and 113 nM in series [16]. Moreover, the inhibition entry in [3], in series [4], in series [5], in [6], in series [7] and in [8] was “Dose-Dependent Effect” throughout. Besides, the inhibition result in series [9], in [10], in [11], in series [12], in series [13] and in [14] was “Active” each time. Besides, the outcome with KC-0116 [17] and in the series with KC-0116 [32] was Active. In addition, the viability at 0.1 µM in [18] was determined as 92.9%. For the same molecule, the Activity in series [19] stood at 5.5%; in [20], 1.42%; in series [21] it was 0.08%; in series [23], 25.29%; in series [24] it was 2.66%; in series [25], 0.17%. Further, the Activity was 91.42% in series [27]; 0.77% in series [28]; 0.09% in [29]; “Non-Toxic” in series [33]; “Non-Toxic” in series [34]. The viability at 1 µM in series [22] came to 72.9%. Besides, the viability at 10 µM in [26] amounted to 1.53%. For the same molecule, the inhibition in vivo at 10 mg/kg in series [30] is 28.4%. Besides, in series [31], the inhibition in vivo at 40 mg/kg is 77.6%.
As for `CC(C)n1c2cc(Nc3ccnc(-c4cnn(S(=O)(=O)C5CC5)c4)n3)ncc2c2c(OCC(F)(F)F)cc(N3CCN(C)CC3)cc21`, in series [35], the IC50 worked out at 0.28 nM.

For the origin of these results see ChEMBL document CHEMBL5634136 (Eur J Med Chem, 2023).
